Assay results reported in US20240116946A1 (Gilead Sciences, Inc., priority 2022, published 2024).
Read-outs that look alike come from different tables or passages of the source.

Assays:
[1] = molecular target: recombinant SARS-CoV-2 Main protease (Mpro) (Severe acute respiratory syndrome coronavirus 2 (2019-nCoV) (SARS-CoV-2), UniProt P0DTD1); assay: Cov Mpro Biochemical IC50 Assay; conditions: read-out: MPro IC50
[2] = test system: SARS-CoV-2-NLuc; assay: microbe, parasite or virus in culture; assay type: cell-based, SARS Coronavirus 2; conditions: read-out: MPro EC50
[3] = recombinant SARS-CoV-2 Mpro 7.5 nM, fluorogenic peptide substrate 40 μM
[4] = Severe acute respiratory syndrome coronavirus, 48 h
[5] = recombinant SARS-CoV-2 Mpro, fluorogenic peptide substrate

Row | Molecule | IC50 [1, 3] [nM] | EC50 [2] [nM] | EC50 [2, 4] [nM] | IC50 [1, 5] [nM]
1 | 5-fluoro-2-[6-fluoro-3-(4-isoquinolyl)-2,4-dioxo-1H-quinazolin-7-yl]-4-methoxy-benzonitrile [Example 517] | 9.51 | 35.9 | – | –
2 | 6-[2-chloro-6-(8-methyl-[1,2,4]triazolo[1,5-a]pyridin-6-yl)phenyl]-3-(6-methoxy-4-isoquinolyl)-1H-thieno[3,2-d]pyrimidine-2,4-dione [Example 565] | 16.5 | 58.1 | – | –
3 | COc1ccc(C#N)c(-c2cc3c(cc2F)c(=O)n(-c2cncc4ccccc24)c(=O)n3CC#N)c1 (atropisomer, axis not shown) [Example 701] | < 3.63 | – | 79.9 | –
4 | COc1ccc(Cl)c(-c2cc3c(s2)c(=O)n(-c2cncc4ccccc24)c(=O)n3CC#N)c1 (atropisomer, axis not shown) [Example 702] | < 2.98 | – | 2.4 | –
5 | COc1cc(-c2cc3c(s2)c(=O)n(-c2cncc4cccc(C)c24)c(=O)n3CCC#N)c(Cl)cc1F (atropisomer, axis not shown) [Example 920] | 5.5 | – | 4.25 | –
6 | O=c1[nH]c2cc(-c3ccccc3Cl)ccc2c(=O)n1-c1cncc2ccccc12 (single isomer, unassigned) [Example 104, 7-(2-chlorophenyl)-3-(isoquinolin-4-yl)quinazoline-2,4(1H,3H)-dione] | – | 3920 | – | 6790
7 | O=c1[nH]c2cc(-c3ccccc3Cl)ccc2c(=O)n1-c1cncc2ccccc12 (single isomer, unassigned) [Example 105, 7-(2-chlorophenyl)-3-(isoquinolin-4-yl)quinazoline-2,4(1H,3H)-dione] | – | 74.3 | – | 70.9
8 | O=c1[nH]c2cc(-c3ccccc3Cl)sc2c(=O)n1-c1cncc2ccccc12 (single isomer, unassigned) [Example 150, 6-(2-chlorophenyl)-3-(isoquinolin-4-yl)thieno[3,2-d]pyrimidine-2,4(1H,3H)-dione] | – | 124 | – | 73
9 | O=c1[nH]c2cc(-c3ccccc3Cl)sc2c(=O)n1-c1cncc2ccccc12 (single isomer, unassigned) [Example 151, 6-(2-chlorophenyl)-3-(isoquinolin-4-yl)thieno[3,2-d]pyrimidine-2,4(1H,3H)-dione] | – | 1.73 | – | < 2.54
10 | COc1ccc(C#N)c(-c2cc3[nH]c(=O)n(-c4cncc5ccccc45)c(=O)c3cc2F)c1 (single isomer, unassigned) [Example 438, 2-(6-fluoro-3-(isoquinolin-4-yl)-2,4-dioxo-1,2,3,4-tetrahydroquinazolin-7-yl)-4-methoxybenzonitrile] | < 4.17 | < 11.4 | – | –
11 | COc1ccc(C#N)c(-c2cc3[nH]c(=O)n(-c4cncc5ccccc45)c(=O)c3cc2F)c1 (single isomer, unassigned) [Example 439, 2-(6-fluoro-3-(isoquinolin-4-yl)-2,4-dioxo-1,2,3,4-tetrahydroquinazolin-7-yl)-4-methoxybenzonitrile] | 828 | 377 | – | –
12 | COc1ccc2cncc(-n3c(=O)[nH]c4cc(-c5ccccc5Cl)sc4c3=O)c2c1 (single isomer, unassigned) [Example 441, 6-(2-chlorophenyl)-3-(6-methoxyisoquinolin-4-yl)thieno[3,2-d]pyrimidine-2,4(1H,3H)-dione] | 109 | 239 | – | –
13 | O=c1[nH]c2cc(-c3ccccc3Cl)sc2c(=O)n1-c1cncc2ccc(N3CCOCC3)cc12 (single isomer, unassigned) [Example 443, 6-(2-chlorophenyl)-3-(6-morpholinoisoquinolin-4-yl)thieno[3,2-d]pyrimidine-2,4(1H,3H)-dione] | 18.8 | 45 | – | –
14 | Cn1cc(-c2cccc(Cl)c2-c2cc3[nH]c(=O)n(-c4cncc5ccccc45)c(=O)c3s2)c(C(F)(F)F)n1 (single isomer, unassigned) [Example 448, 6-(2-chloro-6-(1-methyl-3-(trifluoromethyl)-1H-pyrazol-4-yl)phenyl)-3-(isoquinolin-4-yl)thieno[3,2-d]pyrimidine-2,4(1H,3H)-dione] | 383 | 382 | – | –
15 | O=c1[nH]c2cc(-c3ccccc3Cl)sc2c(=O)n1-c1cncc2cccnc12 (single isomer, unassigned) [Example 463, 6-(2-chlorophenyl)-3-(1,6-naphthyridin-8-yl)thieno[3,2-d]pyrimidine-2,4(1H,3H)-dione] | 202 | 464 | – | –
16 | COc1ccc(Cl)c(-c2cc3[nH]c(=O)n(-c4cncc5ccccc45)c(=O)c3s2)c1 (single isomer, unassigned) [Example 466, 6-(2-chloro-5-methoxyphenyl)-3-(isoquinolin-4-yl)thieno[3,2-d]pyrimidine-2,4(1H,3H)-dione] | 156 | 152 | – | –
17 | COc1ccc(Cl)c(-c2cc3[nH]c(=O)n(-c4cncc5cccnc45)c(=O)c3s2)c1 (single isomer, unassigned) [Example 467, 6-(2-chloro-5-methoxyphenyl)-3-(1,6-naphthyridin-8-yl)thieno[3,2-d]pyrimidine-2,4(1H,3H)-dione] | 11.4 | 38.1 | – | –
18 | COc1ccc(Cl)c(-c2ccc3c(=O)n(-c4cncc5ccccc45)c(=O)[nH]c3c2)c1 (single isomer, unassigned) [Example 476, 7-(2-chloro-5-methoxy-phenyl)-3-(4-isoquinolyl)-1H-quinazoline-2,4-dione] | 258 | 259 | – | –
19 | Cn1cnc(Cn2c(=O)n(-c3cncc4ccccc34)c(=O)c3sc(-c4ccccc4Cl)cc32)n1 (single isomer, unassigned) [Example 478, 6-(2-chlorophenyl)-3-(4-isoquinolyl)-1-[(1-methyl-1,2,4-triazol-3-yl)methyl]thieno[3,2-d]pyrimidine-2,4-dione] | 4290 | 8280 | – | –
20 | COc1cc(-c2cc3[nH]c(=O)n(-c4cncc5ccccc45)c(=O)c3cc2F)c(C#N)cc1F (single isomer, unassigned) [Example 510, 5-fluoro-2-[6-fluoro-3-(4-isoquinolyl)-2,4-dioxo-1H-quinazolin-7-yl]-4-methoxy-benzonitrile] | 7.05 | 16.2 | – | –
21 | COc1cc(-c2cc3[nH]c(=O)n(-c4cncc5ccccc45)c(=O)c3cc2F)c(C#N)cc1F (single isomer, unassigned) [Example 511, 5-fluoro-2-[6-fluoro-3-(4-isoquinolyl)-2,4-dioxo-1H-quinazolin-7-yl]-4-methoxy-benzonitrile] | 913 | 604 | – | –
22 | COc1ccc(C#N)c(-c2cc3[nH]c(=O)n(-c4cncc5ccccc45)c(=O)c3s2)c1 (single isomer, unassigned) [Example 554, 2-(3-(isoquinolin-4-yl)-2,4-dioxo-1,2,3,4-tetrahydrothieno[3,2-d]pyrimidin-6-yl)-4-methoxybenzonitrile] | 3.88 | 14.9 | – | –
23 | COc1ccc(C#N)c(-c2cc3[nH]c(=O)n(-c4cncc5ccccc45)c(=O)c3s2)c1 (single isomer, unassigned) [Example 555, 2-(3-(isoquinolin-4-yl)-2,4-dioxo-1,2,3,4-tetrahydrothieno[3,2-d]pyrimidin-6-yl)-4-methoxybenzonitrile] | 21.5 | 79.6 | – | –
24 | COc1cc(-c2cc3c(s2)c(=O)n(-c2cncc4cnn(C)c24)c(=O)n3CC2(CC#N)CC2)c(Cl)cc1F [Example 659] | 40.9 | – | – | –
